Molecular target: T1, T1R2/T1R3 taste receptor (Homo sapiens, UniProt Q8TE23)
T1 sequence (Q8TE23 20-839): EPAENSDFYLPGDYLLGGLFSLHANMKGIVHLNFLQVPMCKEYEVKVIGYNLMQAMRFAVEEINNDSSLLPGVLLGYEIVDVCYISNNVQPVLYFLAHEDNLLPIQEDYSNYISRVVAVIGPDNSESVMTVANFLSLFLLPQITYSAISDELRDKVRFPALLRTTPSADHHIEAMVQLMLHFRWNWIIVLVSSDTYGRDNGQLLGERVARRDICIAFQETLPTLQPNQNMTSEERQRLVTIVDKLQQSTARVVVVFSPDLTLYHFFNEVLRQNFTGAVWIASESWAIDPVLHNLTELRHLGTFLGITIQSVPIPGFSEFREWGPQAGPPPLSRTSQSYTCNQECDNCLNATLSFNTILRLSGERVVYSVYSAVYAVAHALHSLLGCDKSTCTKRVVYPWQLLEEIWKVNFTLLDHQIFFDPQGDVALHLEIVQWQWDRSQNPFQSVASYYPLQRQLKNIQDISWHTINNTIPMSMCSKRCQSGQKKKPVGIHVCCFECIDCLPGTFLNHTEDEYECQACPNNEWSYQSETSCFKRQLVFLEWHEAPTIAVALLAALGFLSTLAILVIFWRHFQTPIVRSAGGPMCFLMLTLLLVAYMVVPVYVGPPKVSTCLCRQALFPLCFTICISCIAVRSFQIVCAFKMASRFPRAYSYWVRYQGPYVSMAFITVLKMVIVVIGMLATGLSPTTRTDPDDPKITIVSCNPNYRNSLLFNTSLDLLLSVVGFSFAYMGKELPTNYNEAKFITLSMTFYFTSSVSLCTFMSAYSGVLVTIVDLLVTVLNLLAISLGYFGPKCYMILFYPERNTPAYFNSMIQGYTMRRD
T1 sequence (Q7RTX0 21-852 partner): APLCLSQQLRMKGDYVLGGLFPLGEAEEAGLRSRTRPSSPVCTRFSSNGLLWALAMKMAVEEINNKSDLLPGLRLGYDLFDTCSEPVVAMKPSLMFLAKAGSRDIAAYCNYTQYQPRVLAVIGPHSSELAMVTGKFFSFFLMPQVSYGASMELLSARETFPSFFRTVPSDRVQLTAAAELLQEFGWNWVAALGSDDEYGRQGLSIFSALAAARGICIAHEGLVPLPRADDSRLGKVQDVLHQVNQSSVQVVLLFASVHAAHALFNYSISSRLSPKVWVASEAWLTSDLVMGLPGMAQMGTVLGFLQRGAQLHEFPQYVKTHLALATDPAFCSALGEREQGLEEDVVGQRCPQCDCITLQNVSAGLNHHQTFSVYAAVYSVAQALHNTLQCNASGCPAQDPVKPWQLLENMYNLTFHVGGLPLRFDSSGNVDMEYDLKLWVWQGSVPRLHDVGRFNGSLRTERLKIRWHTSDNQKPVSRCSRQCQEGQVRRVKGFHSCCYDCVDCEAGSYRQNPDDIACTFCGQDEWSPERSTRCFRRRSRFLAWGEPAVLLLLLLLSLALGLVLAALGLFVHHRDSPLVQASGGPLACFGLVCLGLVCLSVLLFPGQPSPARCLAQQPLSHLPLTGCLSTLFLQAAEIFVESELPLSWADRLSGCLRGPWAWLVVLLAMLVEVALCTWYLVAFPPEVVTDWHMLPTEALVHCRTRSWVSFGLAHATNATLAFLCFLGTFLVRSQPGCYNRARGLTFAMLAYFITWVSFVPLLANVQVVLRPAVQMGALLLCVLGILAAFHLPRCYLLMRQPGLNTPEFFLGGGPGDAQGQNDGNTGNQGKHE
Experiment: Receptor-based assay: sweetener EC50 alone and with test compound (enhancement ratio)
Assay type: cell-based
Conditions: for Sucralose Enhancement EC50 Ratio: sweetener sucralose; for Sucrose Enhancement EC50 Ratio: sweetener sucrose; for Fructose Enhancement EC50 Ratio: sweetener fructose
In short: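 Sucrose, sucralose or fructose EC50 measured on human T1R2/T1R3, alone and with 3, 10 or 50 μM test compound. Enhancement is the EC50 ratio without/with compound, binned A >20, B 10-20, C >1 to <10.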

Row | SMILES | Sucralose Enhancement EC50 Ratio (10 μM test compound) | Sucralose Enhancement EC50 Ratio (50 μM test compound) | Sucrose Enhancement EC50 Ratio (3 μM test compound) | Sucrose Enhancement EC50 Ratio (10 μM test compound) | Sucrose Enhancement EC50 Ratio (50 μM test compound) | Fructose Enhancement EC50 Ratio (10 μM test compound) | Fructose Enhancement EC50 Ratio (50 μM test compound)
1 | CCNC(=O)c1cccc(N2CCC[C@H](COc3cccc4c3C(N)=NS(=O)(=O)N4)C2)n1 [Compound 402] | A (An “A” value indicates an enhancement ratio of greater than 20) | A (An “A” value indicates an enhancement ratio of greater than 20) | C (A “C” value indicates an enhancement ratio greater than 1 and less than 10) | C (A “C” value indicates an enhancement ratio greater than 1 and less than 10) | C (A “C” value indicates an enhancement ratio greater than 1 and less than 10) |  | 
2 | Cc1cnc(NC(C)(C)COc2cccc3c2C(N)=NS(=O)(=O)N3)nc1 [Compound 100, 4-amino-5-(2-methyl-2-((5-methylpyrimidin-2-yl)amino)propoxy)-1H-benzo[c][1,2,6]thiadiazine 2,2-dioxide] | A (An “A” value indicates an enhancement ratio of greater than 20) | A (An “A” value indicates an enhancement ratio of greater than 20) | C (A “C” value indicates an enhancement ratio greater than 1 and less than 10) | C (A “C” value indicates an enhancement ratio greater than 1 and less than 10) | C (A “C” value indicates an enhancement ratio greater than 1 and less than 10) |  | 
3 | NC1=NS(=O)(=O)Nc2cccc(OC[C@H]3CCCN(c4cccc(C(=O)O)n4)C3)c21 [Compound 301, (S)-6-(3-(((4-amino-2,2-dioxido-1H-benzo[c][1,2,6]thiadiazin-5-yl)oxy)methyl)piperidin-1-yl)picolinic acid] | A (An “A” value indicates an enhancement ratio of greater than 20) | A (An “A” value indicates an enhancement ratio of greater than 20) | C (A “C” value indicates an enhancement ratio greater than 1 and less than 10) | C (A “C” value indicates an enhancement ratio greater than 1 and less than 10) | C (A “C” value indicates an enhancement ratio greater than 1 and less than 10) |  | 
4 | NC1=NS(=O)(=O)Nc2cccc(OC[C@H]3CCCN(c4ccccn4)C3)c21 [Compound 104] | A (An “A” value indicates an enhancement ratio of greater than 20) | A (An “A” value indicates an enhancement ratio of greater than 20) | C (A “C” value indicates an enhancement ratio greater than 1 and less than 10) | C (A “C” value indicates an enhancement ratio greater than 1 and less than 10) | C (A “C” value indicates an enhancement ratio greater than 1 and less than 10) | C (A “C” value indicates an enhancement ratio greater than 1 and less than 10) | 
5 | COCCNc1nccc(NC(C)(C)COc2cccc3c2C(N)=NS(=O)(=O)N3)n1 [Compound 206] | B (A “B” value indicates an enhancement ratio from 10 to 20) | A (An “A” value indicates an enhancement ratio of greater than 20) | C (A “C” value indicates an enhancement ratio greater than 1 and less than 10) | C (A “C” value indicates an enhancement ratio greater than 1 and less than 10) | C (A “C” value indicates an enhancement ratio greater than 1 and less than 10) | C (A “C” value indicates an enhancement ratio greater than 1 and less than 10) | C (A “C” value indicates an enhancement ratio greater than 1 and less than 10)
6 | NC1=NS(=O)(=O)Nc2cccc(OC[C@H]3CCCN(c4cc(C(=O)O)ccn4)C3)c21 [Compound 303] | C (A “C” value indicates an enhancement ratio greater than 1 and less than 10) | A (An “A” value indicates an enhancement ratio of greater than 20) | C (A “C” value indicates an enhancement ratio greater than 1 and less than 10) | C (A “C” value indicates an enhancement ratio greater than 1 and less than 10) | C (A “C” value indicates an enhancement ratio greater than 1 and less than 10) |  | C (A “C” value indicates an enhancement ratio greater than 1 and less than 10)
7 | NC1=NS(=O)(=O)Nc2cccc(OC[C@H]3CCCN(c4ccc(C(=O)NC5CCCCC5)cn4)C3)c21 [Compound 509] | B (A “B” value indicates an enhancement ratio from 10 to 20) | A (An “A” value indicates an enhancement ratio of greater than 20) | C (A “C” value indicates an enhancement ratio greater than 1 and less than 10) | C (A “C” value indicates an enhancement ratio greater than 1 and less than 10) | C (A “C” value indicates an enhancement ratio greater than 1 and less than 10) |  | C (A “C” value indicates an enhancement ratio greater than 1 and less than 10)
8 | NC1=NS(=O)(=O)Nc2cccc(OC[C@H]3CCCN(c4cccc(C(=O)NC5CCCCC5)n4)C3)c21 [Compound 409] | A (An “A” value indicates an enhancement ratio of greater than 20) | A (An “A” value indicates an enhancement ratio of greater than 20) | C (A “C” value indicates an enhancement ratio greater than 1 and less than 10) | C (A “C” value indicates an enhancement ratio greater than 1 and less than 10) | B (A “B” value indicates an enhancement ratio from 10 to 20) |  | 
9 | Cc1cc(C(=O)O)nc(N2CCC[C@H](COc3cccc4c3C(N)=NS(=O)(=O)N4)C2)n1 [Compound 307] | A (An “A” value indicates an enhancement ratio of greater than 20) | A (An “A” value indicates an enhancement ratio of greater than 20) | C (A “C” value indicates an enhancement ratio greater than 1 and less than 10) | C (A “C” value indicates an enhancement ratio greater than 1 and less than 10) | C (A “C” value indicates an enhancement ratio greater than 1 and less than 10) | C (A “C” value indicates an enhancement ratio greater than 1 and less than 10) | C (A “C” value indicates an enhancement ratio greater than 1 and less than 10)
10 | NC1=NS(=O)(=O)Nc2cccc(OC[C@H]3CCCN(c4ccc(C(=O)NCCO)cn4)C3)c21 [Compound 503] | A (An “A” value indicates an enhancement ratio of greater than 20) |  | C (A “C” value indicates an enhancement ratio greater than 1 and less than 10) | C (A “C” value indicates an enhancement ratio greater than 1 and less than 10) | C (A “C” value indicates an enhancement ratio greater than 1 and less than 10) |  | 
